# Test results from patent publication US10966951B2, “Compositions and methods for lowering triglycerides in a subject having reduced kidney function” (Amarin Pharmaceuticals Ireland Limited, priority 2017, dated 2021).
# System: patients with reduced kidney function (eGFR<90 mL/min/1.73 m^2) and diabetes mellitus
# Assay: Post-hoc ANCHOR analysis, reduced kidney function and diabetes mellitus (Example 5)
# Type: in vivo, human
# Conditions: 4 g/day
# Experimental: CVD-related (e.g., atherogenic) parameters were analyzed in a post-hoc study of 198 patients from the multi-center, placebo-controlled, randomized double-blind, 12-week study described in Example 1. These 198 patients have reduced kidney function (e.g., eGFR<90 mL/min/1.73 m^2 for ≥3 months) and diabetes mellitus.
# 98 patients were randomized to E-EPA and 100 patients were randomized to placebo. In total, atherogenic parameters were analyzed in all 198 patients, 56% of which were male and 97% of which were white. The mean age of the 198 patients was 63 years old.
# The primary objective of this post-hoc study was to determine if and how 4 g of daily of >96% E-EPA, compared to placebo, affects patients with reduced kidney function, diabetes mellitus, and high triglyceride levels. The secondary objective was to determine if and how 4 g daily >96% E-EPA, compared to placebo, affected CVD-related parameters in patients having a high risk for CVD and fasting TG levels 200 mg/dL and <500 mg/dL, despite treatment to LDL-C goal on statin therapy. These CVD-parameters include lipid levels, lipoprotein levels, and inflammatory markers, such as TC, LDL-C, HDL-C, vLDL-C, vLDL-TG, RLP-C, non-HDL-C, Apo B, Apo C-III, Lp-PLA, hsCRP, and ox-LDL, and in plasma and RBC EPA concentration. CVD-parameters were analyzed for median difference in percent change from baseline to week 12 in subjects receiving 4 g/day of E-EPA and those receiving the placebo.
# The median difference in lipid/lipoprotein, apolipoprotein, and inflammatory parameters were determined from baseline to week 12 for 4/g day of E-EPA compared to placebo.
smiles,measurement,setting,value
"CC/C=C\C/C=C\C/C=C\C/C=C\C/C=C\CCCC(=O)OCC [E-EPA, ethyl eicosapentaenoate]",albumin after 12 weeks,after 12 weeks,4.5 g/dL
same,serum creatinine after 12 weeks,after 12 weeks,0.9 mg/dL
same,albumin before treatment,before the 12 weeks,4.5 g/dL
same,eGFR before treatment,before the 12 weeks,75.4 mL/min/1.73 m^2
same,serum creatinine before treatment,before the 12 weeks,0.9 mg/dL
